Assay results: a compilation of properties of binary mixtures

Assay: xn = mol fraction of the nth substance listed
Settings: 101 kPa

CCCC[n+]1ccc(C)cc1.F[B-](F)(F)F + CO
viscosity [mPa·s]
Settings | 298.15 K | 313.15 K | 323.15 K
x1 = 0.0151 | 0.621 | 0.507 | –
x2 = 0 | – | 81 | 50.2
x2 = 0.4287 | – | – | 9.2
x2 = 0.5246 | – | 7.58 | 5.92
x2 = 0.5678 | 9.3 | 6.31 | 4.95
x2 = 0.718 | 4.19 | – | 2.5
x2 = 0.8313 | 2.02 | 1.54 | –
x2 = 0.8803 | 1.46 | – | –
x2 = 0.9154 | 1.11 | 0.877 | 0.763
x2 = 0.9452 | 0.868 | 0.696 | 0.611
x2 = 0.9671 | – | 0.586 | 0.519
x2 = 0.9775 | 0.669 | 0.544 | 0.476

CO + CCCC[n+]1ccc(C)cc1.F[B-](F)(F)F
x1 = 1
Settings | viscosity [mPa·s]
313.15 K | 0.436
323.15 K | 0.383
